# Results taken from patent US20220401591A1, “SYSTEM AND METHOD FOR QUANTITATIVE MAPPING OF MITOCHONDRIAL COMPLEX 1” (Lantheus Medical Imaging, Inc., priority 2012, published 2022).
# Assays:
# [1] = system: mitochondrial complex I (MC-I); test: 100 minute dynamic ^18F-Flurpiridaz PET study of binding in the heart, 2-compartment reversible model fit; assay type: in vivo, cynomolgus monkey; conditions: myocardium ROI, 100 min data, 1.25 mCi
# Description: Measurement of myocardial blood flow and binding potential with ^18F-Flurpiridaz can be approached with standard methods that are well understood and available in our laboratory. We use a four parameter (K1, k2, k3, k4), two tissue compartment model (FIGS. 1A-1B) to describe Flurpiridaz kinetics. In this model the tracer can be in one of two states, either free, as the injected molecule, or bound to a receptor. In the case of ^18F-Flurpiridaz, previous studies have shown that it binds reversibly to mitochondrial complex I and this is supported by the data presented herein (see Example 3). Referring to FIGS. 1A-1B, the product of plasma concentration (Cp) and transport rate K1 is the force driving the tracer from capillary plasma to the free space (i.e., both free and nonspecifically bound). Conceptually, CF represents free flurpiridaz and CB represents Flurpiridaz binding to the MC-I complex. Corrections (not shown) are included for spillover of activity.
# Symbolically, K1 is the plasma-to-tissue transport rate, FE, the product of flow and the unidirectional capillary extraction fraction, E. k2 is a rate constant summarizing the egress from tissue to plasma. The rate constants k3 (kon*B′max) and k4 (koff) provide a summary description of binding and release of tracer. This model, with nonlinear least squares, was used to fit 100 minutes of data obtained in a study of binding in the heart of a cynomolgus monkey (see Example 3). It is anticipated that a similar approach will be adequate for validation studies in pigs. Graphical methods can also be studied and applied for determination of BP, as they may be more appropriate for quantitative parametric images and future translation to human studies. For example, consider: Logan J, Fowler J S, Volkow N D, et al. Graphical analysis of reversible radioligand binding from time-activity measurements applied to [N-11C-methyl]-(-)-cocaine PET studies in human subjects. J Cereb Blood Flow Metab. Sep 1990; 10(5):740-747 and Zhou Y, Ye W, Brasic J R, Crabb A H, Hilton J, Wong D F. A consistent and efficient graphical analysis method to improve the quantification of reversible tracer binding in radioligand receptor dynamic PET studies. Neuroimage. Feb 1 2009; 44(3):661-670. Software programs for both approaches have been developed. Realistic Monte Carlo simulation and sensitivity analysis can be used to determine the precision obtained with a given dose of ^18F-Flurpiridaz and the experimental duration of the study. The structure of ^18F-Flurpiridaz is detailed in FIG. 1C.
# Based on preliminary data from a primate study using ^18F-Flurpiridaz, the parameter precision for estimating the MBF and BPP was evaluated. […]
# MC-I = test: ^18F-Flurpiridaz cardiac dynamic PET in infarcted pig, two-tissue compartment model; assay type: in vivo, domestic swine
# Description: In some aspects the model is further developed. The modeling approach is based upon the two-tissue compartment model that describes the uptake and retention of a radiotracer that diffusively exchanges between the blood and tissue, and binds reversibly to a specific target site (FIG. 1A-1B). In this framework the concentration of radiotracer is considered in three distinct states: in the plasma (CP) or one of two tissue states, freely suspended in the tissue fluids (CF) or specifically bound to the target site (CB). Four parameters (K1, k2 , k3, k4) detail the physiological mechanisms underlying uptake and binding. K1 and k2 pertain to the rates of tracer influx (proportional to blood flow) from the vasculature and efflux back out of the tissue, respectively. The ratio K1/k2 is the partition coefficient VND. which reflects non-specific uptake based on properties of the tissue that are not expected to vary regionally. The rate at which tracer binds to the target site is related by k3. The bimolecular nature of associative binding makes k3 a compound parameter, the product of kon (an intrinsic binding rate characteristic to the ligand and target site) and Bmax (the density of the binding sites). For reversibly binding interactions such as between ^18F-Flurpiridaz and MC-I, the return of specifically bound tracer to the free state is portrayed by k4. Here k4 is synonymous with the intrinsic binding dissociation constant koff, which is not expected to differ between regions. In our cardiac application, two additional parameters (fLV, fRV) account for signal contamination from blood pools in the adjacent left and right ventricles. Combinations of individual rate constants yield macroparameters that are robust and informative with regard to radiotracer binding at the target site. These macroparameters include total volume of distribution (VT=[K1/k2][1+k3/k4], the equilibrium ratio of tracer concentration in tissue vs. plasma) and several variants of binding potential (BP, proportional to the target density). […]
# [2] = cited from earlier work
# [3] = 17 segments fitted independently
compound,measurement,setting,value
CC(C)(C)n1ncc(OCc2ccc(COCCF)cc2)c(Cl)c1=O [^18F-Flurpiridaz],k2 (egress from tissue to plasma),[1],0.075 (SD=4.7%)
same,k3/k4,[1],1.65 (SD=4.0%)
same,"k4 (koff, release)",[1],0.016 (SD=10.4%)
same,K1 (plasma-to-tissue transport rate),[1]; SD from asymptotic covariance matrix,0.51 (SD=1.5%)
same,reduction of K1 in damaged compared to healthy tissue,MC-I; [3],about 50%
same,reduction of VT in damaged compared to healthy tissue,MC-I; [3],about 75%
same,binding reduction (BP) in damaged tissues,MC-I; grand fit with common VND across regions,up to 90%
same,unidirectional extraction fraction,[2]; at all physiological flow values,~1
same,brain blood barrier passage,[2]; in vivo,crosses the brain blood barrier
